Where two headings read alike, the source gives them in different places.
[1] = DL3 800 mg twice daily × 3 + sLV5FU2, Any cycle, n = 3
[2] = DL3 1,000 mg once daily × 3 + sLV5FU2, 1st cycle, n = 3
[3] = DL3 1,000 mg once daily × 3 + sLV5FU2, Any cycle, n = 3
[4] = DL4 1,200 mg once daily × 3 + sLV5FU2, 1st cycle, n = 3
[5] = DL4 1,200 mg once daily × 3 + sLV5FU2, Any cycle, n = 3
[6] = DL5 1,400 mg once daily × 3 + sLV5FU2, 1st cycle, n = 3
[7] = DL5 1,400 mg once daily × 3 + sLV5FU2, Any cycle, n = 3
[8] = DL6 1,700 mg once daily × 3 + sLV5FU2, 1st cycle, n = 6
[9] = DL6 1,700 mg once daily × 3 + sLV5FU2, Any cycle, n = 6
[10] = DL7 2,000 mg once daily × 3 + sLV5FU2, 1st cycle, n = 3
[11] = DL7 2,000 mg once daily × 3 + sLV5FU2, Any cycle, n = 3

O=C(CCCCCCC(=O)Nc1ccccc1)NO [vorinostat, suberoylanilide hydroxamic acid]
3/3/0: Vomiting, treatment-related, patients (G2/G3/G4) [9]
1/1/0: Mucositis, treatment-related, patients (G2/G3/G4) [9] | Dehydration, treatment-related, patients (G2/G3/G4) [11]
6/0/0: Fatigue, treatment-related, patients (G2/G3/G4) [9]
2/0/0: Neutropenia, treatment-related, patients (G2/G3/G4) [1] | Fatigue, treatment-related, patients (G2/G3/G4) [3] | Fatigue, treatment-related, patients (G2/G3/G4) [4] | Fatigue, treatment-related, patients (G2/G3/G4) [5] | Vomiting, treatment-related, patients (G2/G3/G4) [5] | Diarrhea, treatment-related, patients (G2/G3/G4) [7] | Fatigue, treatment-related, patients (G2/G3/G4) [7] | Anorexia, treatment-related, patients (G2/G3/G4) [8] | Nausea, treatment-related, patients (G2/G3/G4) [8] | Anorexia, treatment-related, patients (G2/G3/G4) [11] | Nausea, treatment-related, patients (G2/G3/G4) [11]
0/0/1: VTE, treatment-related, patients (G2/G3/G4) [1]
None: Patients with DLT (DL6 1,700 mg once daily × 3 + sLV5FU2, six patients)
1,700 mg: MTD of vorinostat, once-daily schedule (orally once daily × 3 days every 2 weeks, in combination with sLV5FU2)
2/1/0: Thrombocytopenia, treatment-related, patients (G2/G3/G4) [1] | Anemia, treatment-related, patients (G2/G3/G4) [9] | Dehydration, treatment-related, patients (G2/G3/G4) [9]
0/2/0: Infection, treatment-related, patients (G2/G3/G4) [9] | Anemia, treatment-related, patients (G2/G3/G4) [10] | Anemia, treatment-related, patients (G2/G3/G4) [11] | Fatigue, treatment-related, patients (G2/G3/G4) [11]
600 mg: MTD of vorinostat, twice-daily schedule (orally twice daily × 3 days every 2 weeks, in combination with sLV5FU2)
without any DLT: DLT (once-daily dose levels 1 through 6, three patients each)
3/0/0: Fatigue, treatment-related, patients (G2/G3/G4) [8]
0/1/0: DVT/PE, treatment-related, patients (G2/G3/G4) [5] | Diarrhea, treatment-related, patients (G2/G3/G4) [5] | Neutropenia, treatment-related, patients (G2/G3/G4) [7] | Diarrhea, treatment-related, patients (G2/G3/G4) [8] | DVT/PE, treatment-related, patients (G2/G3/G4) [9] | GI bleed, treatment-related, patients (G2/G3/G4) [10] | Thrombocytopenia, treatment-related, patients (G2/G3/G4) [10] | GI bleed, treatment-related, patients (G2/G3/G4) [11] | Hand and Foot, treatment-related, patients (G2/G3/G4) [11] | Thrombocytopenia, treatment-related, patients (G2/G3/G4) [11]
1/0/0: Anemia, treatment-related, patients (G2/G3/G4) [2] | Fatigue, treatment-related, patients (G2/G3/G4) [2] | Anemia, treatment-related, patients (G2/G3/G4) [3] | Mucositis, treatment-related, patients (G2/G3/G4) [3] | Vomiting, treatment-related, patients (G2/G3/G4) [4] | Anorexia, treatment-related, patients (G2/G3/G4) [5] | Nausea, treatment-related, patients (G2/G3/G4) [5] | Weight Loss, treatment-related, patients (G2/G3/G4) [5] | Neutropenia, treatment-related, patients (G2/G3/G4) [6] | Anemia, treatment-related, patients (G2/G3/G4) [7] | Anorexia, treatment-related, patients (G2/G3/G4) [7] | Vomiting, treatment-related, patients (G2/G3/G4) [7] | Weight Loss, treatment-related, patients (G2/G3/G4) [7] | Neutropenia, treatment-related, patients (G2/G3/G4) [9] | Thrombocytopenia, treatment-related, patients (G2/G3/G4) [9] | Anorexia, treatment-related, patients (G2/G3/G4) [10] | Dehydration, treatment-related, patients (G2/G3/G4) [10] | Nausea, treatment-related, patients (G2/G3/G4) [10] | Neutropenia, treatment-related, patients (G2/G3/G4) [10] | Neutropenia, treatment-related, patients (G2/G3/G4) [11]
3/2/0: Diarrhea, treatment-related, patients (G2/G3/G4) [9]
0/0/0: Nausea, treatment-related, patients (G2/G3/G4) [1] | Vomiting, treatment-related, patients (G2/G3/G4) [1] | Anorexia, treatment-related, patients (G2/G3/G4) [2] | DVT/PE, treatment-related, patients (G2/G3/G4) [2] | Dehydration, treatment-related, patients (G2/G3/G4) [2] | Diarrhea, treatment-related, patients (G2/G3/G4) [2] | GI bleed, treatment-related, patients (G2/G3/G4) [2] | Hand and Foot, treatment-related, patients (G2/G3/G4) [2] | Infection, treatment-related, patients (G2/G3/G4) [2] | Mucositis, treatment-related, patients (G2/G3/G4) [2] | Nausea, treatment-related, patients (G2/G3/G4) [2] | Neutropenia, treatment-related, patients (G2/G3/G4) [2] | Thrombocytopenia, treatment-related, patients (G2/G3/G4) [2] | Vomiting, treatment-related, patients (G2/G3/G4) [2] | Weight Loss, treatment-related, patients (G2/G3/G4) [2] | Anorexia, treatment-related, patients (G2/G3/G4) [3] | DVT/PE, treatment-related, patients (G2/G3/G4) [3] | Dehydration, treatment-related, patients (G2/G3/G4) [3] | Diarrhea, treatment-related, patients (G2/G3/G4) [3] | GI bleed, treatment-related, patients (G2/G3/G4) [3] | Hand and Foot, treatment-related, patients (G2/G3/G4) [3] | Infection, treatment-related, patients (G2/G3/G4) [3] | Nausea, treatment-related, patients (G2/G3/G4) [3] | Neutropenia, treatment-related, patients (G2/G3/G4) [3] | Thrombocytopenia, treatment-related, patients (G2/G3/G4) [3] | Vomiting, treatment-related, patients (G2/G3/G4) [3] | Weight Loss, treatment-related, patients (G2/G3/G4) [3] | Anemia, treatment-related, patients (G2/G3/G4) [4] | Anorexia, treatment-related, patients (G2/G3/G4) [4] | DVT/PE, treatment-related, patients (G2/G3/G4) [4] | Dehydration, treatment-related, patients (G2/G3/G4) [4] | Diarrhea, treatment-related, patients (G2/G3/G4) [4] | GI bleed, treatment-related, patients (G2/G3/G4) [4] | Hand and Foot, treatment-related, patients (G2/G3/G4) [4] | Infection, treatment-related, patients (G2/G3/G4) [4] | Mucositis, treatment-related, patients (G2/G3/G4) [4] | Nausea, treatment-related, patients (G2/G3/G4) [4] | Neutropenia, treatment-related, patients (G2/G3/G4) [4] | Thrombocytopenia, treatment-related, patients (G2/G3/G4) [4] | Weight Loss, treatment-related, patients (G2/G3/G4) [4] | Anemia, treatment-related, patients (G2/G3/G4) [5] | Dehydration, treatment-related, patients (G2/G3/G4) [5] | GI bleed, treatment-related, patients (G2/G3/G4) [5] | Hand and Foot, treatment-related, patients (G2/G3/G4) [5] | Infection, treatment-related, patients (G2/G3/G4) [5] | Mucositis, treatment-related, patients (G2/G3/G4) [5] | Neutropenia, treatment-related, patients (G2/G3/G4) [5] | Thrombocytopenia, treatment-related, patients (G2/G3/G4) [5] | Anemia, treatment-related, patients (G2/G3/G4) [6] | Anorexia, treatment-related, patients (G2/G3/G4) [6] | DVT/PE, treatment-related, patients (G2/G3/G4) [6] | Dehydration, treatment-related, patients (G2/G3/G4) [6] | Diarrhea, treatment-related, patients (G2/G3/G4) [6] | Fatigue, treatment-related, patients (G2/G3/G4) [6] | GI bleed, treatment-related, patients (G2/G3/G4) [6] | Hand and Foot, treatment-related, patients (G2/G3/G4) [6] | Infection, treatment-related, patients (G2/G3/G4) [6] | Mucositis, treatment-related, patients (G2/G3/G4) [6] | Nausea, treatment-related, patients (G2/G3/G4) [6] | Thrombocytopenia, treatment-related, patients (G2/G3/G4) [6] | Vomiting, treatment-related, patients (G2/G3/G4) [6] | Weight Loss, treatment-related, patients (G2/G3/G4) [6] | DVT/PE, treatment-related, patients (G2/G3/G4) [7] | Dehydration, treatment-related, patients (G2/G3/G4) [7] | GI bleed, treatment-related, patients (G2/G3/G4) [7] | Hand and Foot, treatment-related, patients (G2/G3/G4) [7] | Infection, treatment-related, patients (G2/G3/G4) [7] | Mucositis, treatment-related, patients (G2/G3/G4) [7] | Nausea, treatment-related, patients (G2/G3/G4) [7] | Thrombocytopenia, treatment-related, patients (G2/G3/G4) [7] | Anemia, treatment-related, patients (G2/G3/G4) [8] | DVT/PE, treatment-related, patients (G2/G3/G4) [8] | Dehydration, treatment-related, patients (G2/G3/G4) [8] | GI bleed, treatment-related, patients (G2/G3/G4) [8] | Hand and Foot, treatment-related, patients (G2/G3/G4) [8] | Infection, treatment-related, patients (G2/G3/G4) [8] | Mucositis, treatment-related, patients (G2/G3/G4) [8] | Neutropenia, treatment-related, patients (G2/G3/G4) [8] | Thrombocytopenia, treatment-related, patients (G2/G3/G4) [8] | Vomiting, treatment-related, patients (G2/G3/G4) [8] | Weight Loss, treatment-related, patients (G2/G3/G4) [8] | GI bleed, treatment-related, patients (G2/G3/G4) [9] | Hand and Foot, treatment-related, patients (G2/G3/G4) [9] | Weight Loss, treatment-related, patients (G2/G3/G4) [9] | DVT/PE, treatment-related, patients (G2/G3/G4) [10] | Diarrhea, treatment-related, patients (G2/G3/G4) [10] | Infection, treatment-related, patients (G2/G3/G4) [10] | Mucositis, treatment-related, patients (G2/G3/G4) [10] | Vomiting, treatment-related, patients (G2/G3/G4) [10] | Weight Loss, treatment-related, patients (G2/G3/G4) [10] | DVT/PE, treatment-related, patients (G2/G3/G4) [11] | Diarrhea, treatment-related, patients (G2/G3/G4) [11] | Infection, treatment-related, patients (G2/G3/G4) [11] | Mucositis, treatment-related, patients (G2/G3/G4) [11] | Vomiting, treatment-related, patients (G2/G3/G4) [11] | Weight Loss, treatment-related, patients (G2/G3/G4) [11]
